Results from ChEMBL document CHEMBL3217610, “SAR investigations on a novel class of gamma-secretase modulators based on a unique scaffold” (Medchemcomm, 2013).

How the values were obtained:
[1] = target: T1, Gamma-secretase (Homo sapiens) (UniProt Q96BI3+Q9NZ42+Q8WW43+P49768+Q92542+P49810); experiment: Selectivity ratio of IC50 for modulation of gamma-secretase (unknown origin) assessed as inhibition of amyloid beta 40 production to IC50 for modulation of gamma-secretase (unknown origin) assessed as inhibition of amyloid beta 42 production; type: protein-complex assay
Gamma-secretase [2] = experiment: Modulation of gamma-secretase (unknown origin) assessed as inhibition of amyloid beta 42 production; type: protein-complex assay, Homo sapiens
Gamma-secretase [3] = experiment: Modulation of gamma-secretase (unknown origin) assessed as inhibition of amyloid beta 40 production; type: protein-complex assay, Homo sapiens
[4] = target: T1, Gamma-secretase (Homo sapiens); experiment: Modulation of gamma-secretase (unknown origin) assessed as inhibition of amyloid beta 40 production at 20 uM relative to control; type: protein-complex assay
Gamma-secretase [5] = experiment: Modulation of gamma-secretase (unknown origin) expressed in CHO cells assessed as inhibition of amyloid beta 42 production; type: cell-based, Homo sapiens
Gamma-secretase [6] = experiment: Modulation of gamma-secretase (unknown origin) expressed in CHO cells assessed as inhibition of amyloid beta 40 production; type: cell-based, Homo sapiens
[7] = target: T1, Gamma-secretase (Homo sapiens); experiment: Modulation of gamma-secretase (unknown origin) assessed as inhibition of amyloid beta 40 production at 4 uM relative to control; type: protein-complex assay

Structure (SMILES) | Ratio IC50 [1] | IC50 (Gamma-secretase [2]) | IC50 (Gamma-secretase [3]) | inhibition [4] | IC50 (Gamma-secretase [5]) | IC50 (Gamma-secretase [6]) | inhibition [7]
CC(=O)O[C@@H]([C@@H]1C[C@@H](C)[C@H]2[C@H](O1)[C@H](O)[C@@]1(C)[C@@H]3CC[C@H]4C(C)(C)[C@@H](OC(=O)Cc5ccccn5)CC[C@@]45C[C@@]35CC[C@]21C)C(C)(C)O | 9 | 780 nM | 7200 nM |  |  |  | 
CC(=O)O[C@@H]([C@@H]1C[C@@H](C)[C@H]2[C@H](O1)[C@H](O)[C@@]1(C)[C@@H]3CC[C@H]4C(C)(C)[C@@H](OC(=O)C5(C)COC5)CC[C@@]45C[C@@]35CC[C@]21C)C(C)(C)O | > 33 | 590 nM |  | 41% |  |  | 
CC(=O)O[C@@H]([C@@H]1C[C@@H](C)[C@H]2[C@H](O1)[C@H](O)[C@@]1(C)[C@@H]3CC[C@H]4C(C)(C)[C@@H](OC(=O)N5CCC5)CC[C@@]45C[C@@]35CC[C@]21C)C(C)(C)O | 43 | 340 nM | 14700 nM |  |  |  | 
CC(=O)O[C@@H]([C@@H]1C[C@@H](C)[C@H]2[C@H](O1)[C@H](O)[C@@]1(C)[C@@H]3CC[C@H]4C(C)(C)[C@@H](OC(=O)CCC(=O)O)CC[C@@]45C[C@@]35CC[C@]21C)C(C)(C)O | 11 | 1600 nM | 18000 nM |  |  |  | 
CC(=O)O[C@@H]([C@@H]1C[C@@H](C)[C@H]2[C@H](O1)[C@H](O)[C@@]1(C)[C@@H]3CC[C@H]4C(C)(C)[C@@H](OC(=O)CN)CC[C@@]45C[C@@]35CC[C@]21C)C(C)(C)O |  | 95 nM |  |  |  |  | 
CC(=O)O[C@@H]([C@@H]1C[C@@H](C)[C@H]2[C@H](O1)[C@H](O)[C@@]1(C)[C@@H]3CC[C@H]4C(C)(C)[C@@H](OC(=O)NC5COC5)CC[C@@]45C[C@@]35CC[C@]21C)C(C)(C)O | > 44 | 450 nM |  | 40% |  |  | 
CC(=O)O[C@@H]([C@@H]1C[C@@H](C)[C@H]2[C@H](O1)[C@H](O)[C@@]1(C)[C@@H]3CC[C@H]4C(C)(C)[C@@H](OC(N)=O)CC[C@@]45C[C@@]35CC[C@]21C)C(C)(C)O | > 100 | 200 nM |  | 27% |  |  | 
CC(=O)O[C@@H]([C@@H]1C[C@@H](C)[C@H]2[C@H](O1)[C@H](O)[C@@]1(C)[C@@H]3CC[C@H]4C(C)(C)[C@@H](OC(=O)CN(C)C)CC[C@@]45C[C@@]35CC[C@]21C)C(C)(C)O | 15 | 570 nM | 8400 nM |  |  |  | 
CC(=O)O[C@@H]([C@@H]1C[C@@H](C)[C@H]2[C@H](O1)[C@H](O)[C@@]1(C)[C@@H]3CC[C@H]4C(C)(C)[C@@H](OC(=O)NCc5ccccn5)CC[C@@]45C[C@@]35CC[C@]21C)C(C)(C)O | > 35 | 560 nM |  | 32% |  |  | 
CC(=O)O[C@@H]([C@@H]1C[C@@H](C)[C@H]2[C@H](O1)[C@H](O)[C@@]1(C)[C@@H]3CC[C@H]4C(C)(C)[C@@H](OC(=O)C5CCCO5)CC[C@@]45C[C@@]35CC[C@]21C)C(C)(C)O (mixture of isomers) | > 23 | 860 nM |  | 44% |  |  | 
CC(=O)O[C@@H]([C@@H]1C[C@@H](C)[C@H]2[C@H](O1)[C@H](O)[C@@]1(C)[C@@H]3CC[C@H]4C(C)(C)[C@@H](O)CC[C@@]45C[C@@]35CC[C@]21C)C(C)(C)O |  | 600 nM | 14000 nM |  |  |  | 
CC(=O)O[C@@H]([C@@H]1C[C@@H](C)[C@H]2[C@H](O1)[C@H](O)[C@@]1(C)[C@@H]3CC[C@H]4C(C)(C)[C@@H](OC(=O)c5ccccn5)CC[C@@]45C[C@@]35CC[C@]21C)C(C)(C)O | 25 | 520 nM | 13000 nM |  |  |  | 
CC(=O)O[C@@H]([C@@H]1C[C@@H](C)[C@H]2[C@H](O1)[C@H](O)[C@@]1(C)[C@@H]3CC[C@H]4C(C)(C)[C@@H](OC(=O)[C@@H]5CCCN5)CC[C@@]45C[C@@]35CC[C@]21C)C(C)(C)O | 20 | 230 nM | 4600 nM |  |  |  | 
CC(=O)O[C@@H]([C@@H]1C[C@@H](C)[C@H]2[C@H](O1)[C@H](O)[C@@]1(C)[C@@H]3CC[C@H]4C(C)(C)[C@@H](O[C@@H]5OC[C@@H](O)[C@H](O)[C@H]5O)CC[C@@]45C[C@@]35CC[C@]21C)C(C)(C)O |  | 60 nM | 1000 nM |  |  |  | 
CC(=O)O[C@@H]([C@@H]1C[C@@H](C)[C@H]2[C@H](O1)[C@H](O)[C@@]1(C)[C@@H]3CC[C@H]4C(C)(C)[C@@H](OC(=O)c5cccnc5)CC[C@@]45C[C@@]35CC[C@]21C)C(C)(C)O | 54 | 260 nM | 14000 nM |  |  |  | 
CC(=O)OC(C)(C)[C@H]1O[C@@]23O[C@H]1C[C@@H](C)C2[C@@]1(C)CC[C@@]24C[C@@]25CC[C@H](O[C@@H]2OC[C@@H](O)[C@H](O)[C@H]2O)C(C)(C)[C@@H]5CC[C@H]4[C@]1(C)[C@H]3O (stereo partly specified) |  | 3000 nM |  |  |  |  | 

Structure (SMILES) | Ratio IC50 [1] | IC50 (Gamma-secretase [2]) | IC50 (Gamma-secretase [3]) | inhibition [4] | IC50 (Gamma-secretase [5]) | IC50 (Gamma-secretase [6]) | inhibition [7]
CC(=O)O[C@@H]([C@@H]1C[C@@H](C)[C@H]2[C@H](O1)[C@H](O)[C@@]1(C)[C@@H]3CC[C@H]4C(C)(C)[C@@H](OC(=O)NCCN5CCOCC5)CC[C@@]45C[C@@]35CC[C@]21C)C(C)(C)O | > 86 | 230 nM |  | 31% |  |  | 
CC(=O)O[C@@H]([C@@H]1C[C@@H](C)[C@H]2[C@H](O1)[C@H](O)[C@@]1(C)[C@@H]3CC[C@H]4C(C)(C)[C@@H](OC(=O)C5CNC5)CC[C@@]45C[C@@]35CC[C@]21C)C(C)(C)O | 24 | 55 nM | 1300 nM |  |  |  | 
CC(=O)O[C@@H]([C@@H]1C[C@@H](C)[C@H]2[C@H](O1)[C@H](O)[C@@]1(C)[C@@H]3CC[C@H]4C(C)(C)[C@@H](OC(=O)N5CCOCC5)CC[C@@]45C[C@@]35CC[C@]21C)C(C)(C)O | 62 | 220 nM | 13600 nM |  |  |  | 
CC(=O)O[C@@H]([C@@H]1C[C@@H](C)[C@H]2[C@H](O1)[C@H](O)[C@@]1(C)[C@@H]3CC[C@H]4C(C)(C)[C@@H](OC(=O)C5CCN5)CC[C@@]45C[C@@]35CC[C@]21C)C(C)(C)O (mixture of isomers) |  | 220 nM |  |  |  |  | 
CC(=O)O[C@@H]([C@@H]1C[C@@H](C)[C@H]2[C@H](O1)C(=O)[C@@]1(C)[C@@H]3CC[C@H]4C(C)(C)[C@@H](O[C@@H]5OC[C@@H](O)[C@H](O)[C@H]5O)CC[C@@]45C[C@@]35CC[C@]21C)C(C)(C)O |  | 600 nM | 9800 nM |  |  |  | 
CC(=O)O[C@@H]([C@@H]1C[C@@H](C)C2=C(O1)[C@H](O)[C@@]1(C)[C@@H]3CC[C@H]4C(C)(C)[C@@H](O[C@@H]5OC[C@@H](O)[C@H](O)[C@H]5O)CC[C@@]45C[C@@]35CC[C@]21C)C(C)(C)O |  | 100 nM | 2700 nM |  | 100 nM | 6300 nM | 
CC(=O)O[C@@H]([C@@H]1C[C@@H](C)[C@H]2[C@H](O1)[C@H](O)[C@@]1(C)[C@@H]3CC[C@H]4C(C)(C)[C@@H](OC(=O)NCC(=O)O)CC[C@@]45C[C@@]35CC[C@]21C)C(C)(C)O | > 8 | 2500 nM |  | 37% |  |  | 
CC(=O)O[C@@H]([C@@H]1C[C@@H](C)[C@H]2[C@H](O1)[C@H](O)[C@@]1(C)[C@@H]3CC[C@H]4C(C)(C)[C@@H](OC(=O)NCCN(C)C)CC[C@@]45C[C@@]35CC[C@]21C)C(C)(C)O | > 11 | 360 nM |  |  |  |  | 23%
C[C@@H]1C[C@@H]([C@H](O)C(C)(C)O)O[C@H]2[C@H]1[C@@]1(C)CC[C@@]34C[C@@]35CC[C@H](O[C@@H]3OC[C@@H](O)[C@H](O)[C@H]3O)C(C)(C)[C@@H]5CC[C@H]4[C@]1(C)[C@H]2O |  | 3100 nM |  |  |  |  | 
CC(=O)O[C@@H]([C@@H]1C[C@@H](C)[C@H]2[C@H](O1)[C@H](O)[C@@]1(C)[C@@H]3CC[C@H]4C(C)(C)[C@@H](OC(=O)NC5CCC5)CC[C@@]45C[C@@]35CC[C@]21C)C(C)(C)O | > 42 | 470 nM |  | 26% |  |  | 
CC(=O)O[C@@H]([C@@H]1C[C@@H](C)[C@H]2[C@H](O1)[C@H](O)[C@@]1(C)[C@@H]3CC[C@H]4C(C)(C)[C@@H](OC(=O)c5ccncc5)CC[C@@]45C[C@@]35CC[C@]21C)C(C)(C)O |  | 1000 nM |  |  |  |  | 
CC(=O)O[C@@H]([C@@H]1C[C@@H](C)[C@H]2[C@H](O1)[C@H](O)[C@@]1(C)[C@@H]3CC[C@H]4C(C)(C)[C@@H](OC(=O)NC5CN6CCC5CC6)CC[C@@]45C[C@@]35CC[C@]21C)C(C)(C)O (stereo partly specified) | 29 | 84 nM | 2400 nM |  |  |  | 
CC(=O)O[C@H]1CC[C@]23C[C@]24CC[C@]2(C)[C@@H]5[C@H](O[C@H]([C@H](OC(C)=O)C(C)(C)O)C[C@H]5C)[C@H](O)[C@@]2(C)[C@@H]4CC[C@H]3C1(C)C | 16 | 760 nM | 12000 nM |  |  |  | 
CC(=O)O[C@@H]([C@@H]1C[C@@H](C)[C@H]2[C@H](O1)[C@H](O)[C@@]1(C)[C@@H]3CC[C@H]4C(C)(C)[C@@H](OC(=O)NC5CNC5)CC[C@@]45C[C@@]35CC[C@]21C)C(C)(C)O | 7 | 47 nM | 330 nM |  |  |  | 
CC(=O)O[C@@H]([C@@H]1C[C@@H](C)[C@H]2[C@H](O1)[C@H](O)[C@@]1(C)[C@@H]3CC[C@H]4C(C)(C)[C@@H](OC(=O)NCCN)CC[C@@]45C[C@@]35CC[C@]21C)C(C)(C)O | 33 | 91 nM | 3000 nM |  |  |  | 
